The test system of data set [1] is MDA cells. Put plainly: Cytotoxicity against MDA cell line. The settings on record: read-out: Cytotoxicity IC50 MDA.
The test system of data set [2] is Hela cells. The data set can be described thus: Cytotoxicity against Hela cell line. The settings on record: read-out: Cytotoxicity IC50 Hela.
The test system of data set [3] is A549 cell line. The data set can be described thus: Cytotoxicity against A549 cell line. The settings on record: read-out: Cytotoxicity IC50 A549.
Data set [4] deals with VEGFR2 (Homo sapiens, UniProt P35968). The data set can be described thus: VEGFR2 enzyme inhibitory activity.
Chain of VEGFR2 (P35968 20-1356): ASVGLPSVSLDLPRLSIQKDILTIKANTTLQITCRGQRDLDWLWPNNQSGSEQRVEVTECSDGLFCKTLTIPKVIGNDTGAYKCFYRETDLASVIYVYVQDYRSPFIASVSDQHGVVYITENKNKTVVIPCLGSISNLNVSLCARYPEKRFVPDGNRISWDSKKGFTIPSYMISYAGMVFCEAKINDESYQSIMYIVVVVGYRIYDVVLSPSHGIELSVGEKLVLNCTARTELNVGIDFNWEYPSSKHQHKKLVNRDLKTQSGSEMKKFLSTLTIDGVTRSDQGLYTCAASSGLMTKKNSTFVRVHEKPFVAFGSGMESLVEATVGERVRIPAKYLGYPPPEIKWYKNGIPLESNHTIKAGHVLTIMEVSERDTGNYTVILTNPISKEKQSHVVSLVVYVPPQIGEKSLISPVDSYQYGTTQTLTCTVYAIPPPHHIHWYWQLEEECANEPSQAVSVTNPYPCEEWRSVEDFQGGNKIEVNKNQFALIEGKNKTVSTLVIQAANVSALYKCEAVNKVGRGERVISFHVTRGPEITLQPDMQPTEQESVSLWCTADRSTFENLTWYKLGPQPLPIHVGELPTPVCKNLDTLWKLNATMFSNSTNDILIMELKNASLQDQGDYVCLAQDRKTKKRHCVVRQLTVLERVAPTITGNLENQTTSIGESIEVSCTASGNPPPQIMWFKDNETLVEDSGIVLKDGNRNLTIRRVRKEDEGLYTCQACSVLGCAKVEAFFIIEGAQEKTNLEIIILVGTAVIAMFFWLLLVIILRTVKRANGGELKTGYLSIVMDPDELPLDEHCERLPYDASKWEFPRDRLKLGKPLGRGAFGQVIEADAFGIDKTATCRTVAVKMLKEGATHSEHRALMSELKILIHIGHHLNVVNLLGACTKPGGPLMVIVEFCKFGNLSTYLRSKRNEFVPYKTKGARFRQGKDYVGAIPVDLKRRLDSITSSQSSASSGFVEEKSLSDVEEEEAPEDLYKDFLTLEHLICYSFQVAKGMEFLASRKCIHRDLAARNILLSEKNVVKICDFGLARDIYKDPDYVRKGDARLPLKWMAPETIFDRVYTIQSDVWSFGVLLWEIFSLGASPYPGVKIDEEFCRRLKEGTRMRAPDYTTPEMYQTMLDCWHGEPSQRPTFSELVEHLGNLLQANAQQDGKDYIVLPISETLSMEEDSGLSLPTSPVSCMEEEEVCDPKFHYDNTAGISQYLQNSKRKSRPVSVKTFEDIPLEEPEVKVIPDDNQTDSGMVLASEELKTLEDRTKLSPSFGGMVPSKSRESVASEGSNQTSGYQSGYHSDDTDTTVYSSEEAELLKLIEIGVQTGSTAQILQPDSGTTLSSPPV
Protocol: (§1) The synthesized compounds were evaluated for anticancer activity by adapting a reported procedure [29, 30, 31, 32, 33] using two enzymes, VEGFR2 and EGFR, as well as three cell lines.
Data set [5] concerns the target EGFR (Homo sapiens, UniProt P00533). Put plainly: EGFR enzyme inhibitory activity.
Protocol: as §1
[6] abbreviates: relative to docetaxel, from IC50 values.

Chain of EGFR (P00533 25-1210): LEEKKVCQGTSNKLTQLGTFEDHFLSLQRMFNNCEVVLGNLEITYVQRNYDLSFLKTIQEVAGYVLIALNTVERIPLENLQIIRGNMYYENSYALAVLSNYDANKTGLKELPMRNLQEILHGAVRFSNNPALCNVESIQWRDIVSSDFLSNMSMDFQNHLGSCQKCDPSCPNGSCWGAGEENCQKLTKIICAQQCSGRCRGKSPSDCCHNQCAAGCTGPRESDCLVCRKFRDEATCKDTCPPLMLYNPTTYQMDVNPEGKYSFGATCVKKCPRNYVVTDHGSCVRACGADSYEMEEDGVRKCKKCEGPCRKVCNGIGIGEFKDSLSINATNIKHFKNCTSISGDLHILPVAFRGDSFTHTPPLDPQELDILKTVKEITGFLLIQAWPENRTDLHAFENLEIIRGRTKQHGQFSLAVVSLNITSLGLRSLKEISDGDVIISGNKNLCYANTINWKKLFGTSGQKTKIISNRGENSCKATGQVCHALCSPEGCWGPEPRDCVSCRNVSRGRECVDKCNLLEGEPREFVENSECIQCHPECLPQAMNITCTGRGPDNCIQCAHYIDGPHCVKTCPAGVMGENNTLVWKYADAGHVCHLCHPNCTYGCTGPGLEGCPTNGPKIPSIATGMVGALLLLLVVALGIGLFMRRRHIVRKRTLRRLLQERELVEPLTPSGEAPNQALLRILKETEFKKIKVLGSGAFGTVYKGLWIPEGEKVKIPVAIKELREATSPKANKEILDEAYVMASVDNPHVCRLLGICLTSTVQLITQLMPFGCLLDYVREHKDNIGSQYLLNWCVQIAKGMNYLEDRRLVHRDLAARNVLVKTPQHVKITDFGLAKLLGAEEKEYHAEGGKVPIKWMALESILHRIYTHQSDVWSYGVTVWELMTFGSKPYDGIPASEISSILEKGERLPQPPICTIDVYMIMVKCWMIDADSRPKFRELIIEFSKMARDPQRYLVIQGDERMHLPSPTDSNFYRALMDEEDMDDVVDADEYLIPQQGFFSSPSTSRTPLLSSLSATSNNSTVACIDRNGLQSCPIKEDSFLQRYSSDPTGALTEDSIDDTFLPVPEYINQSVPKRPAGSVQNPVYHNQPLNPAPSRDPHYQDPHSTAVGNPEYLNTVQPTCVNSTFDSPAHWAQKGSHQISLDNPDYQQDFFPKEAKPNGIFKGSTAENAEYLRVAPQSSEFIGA

Regarding `COc1cc(-c2nc3c(OC)cccc3c(=O)o2)cc(OC)c1OC` [Compound 3, 8-methoxy-2-trimethoxyphenyl-4H-benzo[d](1,3)oxazin-4-one], the melting point (commonly the temperature of the solid-liquid transition) is 182 to 184 °C. Moreover, in data set [1], the 50% inhibitory concentration (IC50) – broadly, the concentration needed to halve the response being measured – came out at 17.4 ± 0.5 µM. Besides, in data set [2], the IC50 is 66.5 ± 1.74 µM. Moreover, the IC50 in data set [3] was found to be 43.6 ± 1.1 µM.

As to `COc1cc(-c2nc3c(OC)cccc3c(=O)n2N)cc(OC)c1OC` [Compound 4, 3-amino-8-methoxy-2-trimethoxyphenylquanazoline-4(3H)-one], the melting point was in the range of 182 to 184 °C. Further, in data set [1], the half-maximal inhibitory concentration (IC50) was found to be 4.12 ± 0.1 µM. In data set [2], the IC50 was 29.8 ± 0.78 µM. Moreover, the IC50 in data set [3] was found to be 18 ± 0.5 µM.

In turn, `COc1cc(-c2nc3c(OC)cccc3c(=O)[nH]2)cc(OC)c1OC` [Compound 5, 8-methoxy-2-trimethoxyphenylquanazoline-4(3H)-one] gave a melting point of 242 to 244 °C. The 50% inhibitory concentration (IC50) in data set [1] was determined as 4.39 ± 0.1 µM. Further, in data set [2], the IC50 was found to be 12.9 ± 0.34 µM. For the same compound, in data set [3], the IC50 worked out at 26.3 ± 0.7 µM.

`COc1cccc(C(N)=O)c1NC(=O)c1cc(OC)c(OC)c(OC)c1` [Compound 6]: the melting point fell in the range of 132 to 134 °C. The compound further registered an IC50 in data set [4] of 0.0981 ± 0.00293 µM. The “inhibitory activity for enzyme VEGFR2 compared to the reference drug” value in data set [4] (setting [6]) was about 91%. In data set [1], the IC50 was found to be 0.79 ± 0.04 µM. For the same compound, the half-maximal inhibitory concentration (IC50) in data set [5] stood at 0.106 ± 0.00222 µM. Moreover, the “inhibitory activity for enzyme EGFR compared to the reference drug” value in data set [5] (setting [6]) is listed as about 53%. The IC50 in data set [2] was found to be 2.8 ± 0.07 µM. In data set [3], the concentration for half-maximal inhibition (IC50) turned out to be 81 ± 2.1 µM.

Compound `COc1cccc(C(=O)NN)c1NC(=O)c1cc(OC)c(OC)c(OC)c1` [Compound 7, 3-methoxy-2-(trimethoxybenzamido)-benzoylhydrazide] registered a melting point of 195 to 197 °C. The IC50 in data set [1] is 9 ± 0.2 µM. Besides, in data set [2], the concentration for half-maximal inhibition (IC50) was found to be 18.7 ± 0.49 µM. Also, the IC50 in data set [3] worked out at 46.3 ± 1.2 µM.

The compound `COc1cccc(C(=O)NNS(=O)(=O)c2ccccc2)c1NC(=O)c1cc(OC)c(OC)c(OC)c1` [Compound 8, 3-methoxy-2-(trimethoxybenzamido)-N-[benzenesulphonyl]benzoylhydrazide] displayed a melting point of 263 to 265 °C. Besides, the IC50 in data set [1] came out at 11.7 ± 0.3 µM. Moreover, the half-inhibitory concentration (IC50) in data set [2] worked out at 4.94 ± 0.13 µM. Further, in data set [3], the half-inhibitory concentration (IC50) was 13 ± 0.3 µM.

Take `COc1cc(-c2nc3c(OC)cccc3c(=O)n2NS(=O)(=O)c2ccccc2)cc(OC)c1OC` [Compound 9, 3-benzenesulfamoyl-8-methoxy-2-trimethoxyphenylquanazoline-4(3H)-one]: the melting point fell in the range of 244 to 246 °C. For the same compound, the IC50 in data set [1] came out at 3.42 ± 0.1 µM. Moreover, the IC50 in data set [2] is 11.7 ± 0.31 µM. Moreover, the concentration for half-maximal inhibition (IC50) in data set [3] amounted to 19.9 ± 0.5 µM.

`COc1cc(-c2nc3c(OC)cccc3c(=O)n2C)cc(OC)c1OC` [Compound 10, 3-methyl-8-methoxy-2-trimethoxyphenylquanazoline-4(3H)-one] returned a melting point of 218 to 220 °C. Besides, the IC50 in data set [1] came to 7.77 ± 0.2 µM. Moreover, the 50% inhibitory concentration (IC50) in data set [2] came to 3.98 ± 0.1 µM. Further, in data set [3], the half-inhibitory concentration (IC50) was found to be 12.3 ± 0.3 µM.

`COc1cc(-c2nc3c(OC)cccc3c(=O)n2-c2cc(OC)c(OC)c(OC)c2)cc(OC)c1OC` [Compound 11]: the melting point was in the range of 237 to 239 °C. In addition, the IC50 in data set [1] is 7.06 ± 0.2 µM. Also, the IC50 in data set [2] stood at 12 ± 0.31 µM. Besides, the IC50 in data set [3] came out at 4.03 ± 0.1 µM.

Consider `CC(=O)O[C@@]12CO[C@@H]1C[C@H](O)[C@@]1(C)C(=O)[C@H](O)C3=C(C)[C@@H](OC(=O)[C@H](O)[C@@H](NC(=O)OC(C)(C)C)c4ccccc4)C[C@@](O)([C@@H](OC(=O)c4ccccc4)[C@H]21)C3(C)C` [Docetaxel, docetaxel, reference compound], for which the IC50 was found to be 0.0893 ± 0.00267 µM in data set [4]; 3.98 ± 0.08 µM in data set [1]; 0.0561 ± 0.00117 µM in data set [5]; 9.65 ± 0.2 µM in data set [2]; 10.8 ± 0.23 µM in data set [3].

The values above are taken from article PMC8157871, “Synthesis, Anticancer Screening of Some Novel Trimethoxy Quinazolines and VEGFR2, EGFR Tyrosine Kinase Inhibitors Assay; Molecular Docking Studies” (Molecules, 2021).
